From PMC6556873, “Rapid Covalent-Probe Discovery by Electrophile-Fragment Screening” (Journal of the American Chemical Society, 2019)
Read-outs that look alike come from different tables or passages of the source.

Columns and labels:
in vitro [1] = experiment: in vitro; design: species or system CCD841, HEK293; details: human, hb2 cells, read-out: HB-2 Cells Viability (%)
OTUB2 (OTUB2A) = biological target: T1, OTUB2 (OTUB2A) (Homo sapiens, UniProt Q96DC9); design: Intact protein LC/MS covalent labelling, fragments in pools of five, 200 uM each, 4 °C; details: 24 h, 4 °C, pool of five; 200 µM; covalent
T1 construct: full length residues 1-234, E. coli BL21(DE3)-R3, His tag removed by TEV, construct 27312 Da
T1 sequence (Q96DC9 1-234): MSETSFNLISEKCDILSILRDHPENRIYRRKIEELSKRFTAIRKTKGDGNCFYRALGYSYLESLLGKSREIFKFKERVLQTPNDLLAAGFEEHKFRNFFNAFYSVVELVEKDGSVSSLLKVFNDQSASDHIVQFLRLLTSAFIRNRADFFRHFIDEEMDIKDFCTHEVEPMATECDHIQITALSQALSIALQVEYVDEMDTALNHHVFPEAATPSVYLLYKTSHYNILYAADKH
Protocol: (§1) Incubations were performed at 200 μM for each compound and 2 μM of protein (10 μM for BSA) for 24 h at 4 °C with moderate shaking. Incubation buffers varied among proteins (PBS pH 7.4 for QSOX1 and BSA; 10 mM HEPES pH 7.5, 0.3 M NaCl, 0.5 mM TCEP for PCAF, UPS8, and NUDT7; […]; 10 mM Na2HPO4 pH 7.5 100 mM NaCl 5 mM β-mercaptoethanol for NV3CP; 20 mM Na phosphate pH 7.5 for NNMT; […]. The reaction was stopped by quenching with formic acid, 0.4% final concentration. Each protein was incubated with the electrophilic library in pools of five compounds per well. The pool’s composition maximized the difference in mass between fragments in the same well. Incubations were performed with each fragment at 200 μM, for 24 h at 4 °C, to allow the screening of proteins that are not stable for long time periods at higher temperatures. Following incubation, we used intact protein [compound left out] chromatography/mass spectrometry (LC/MS) to identify the fragments and quantify their labeling (Figure 3A). […] There was good agreement between the percent of labeling of NUDT7 by 100 random individual compounds and that obtained in pools of five (R^2=0.78; Figure S6 and Data set 2 in the Supporting Information).

PCAF = biological target: T2, PCAF (Homo sapiens, UniProt Q92831); design: Intact protein LC/MS covalent labelling, fragments in pools of five, 200 uM each, 4 °C; details: 24 h, 4 °C, pool of five; 200 µM; covalent
T2 construct: gene KAT2B
Protocol: as §1

NUDT7 = biological target: T3, NUDT7 (Homo sapiens, UniProt P0C024); design: Intact protein LC/MS covalent labelling, fragments in pools of five, 200 uM each, 4 °C; details: 24 h, 4 °C, pool of five; 200 µM; covalent
T3 construct: residues 14-235, E. coli, pNIC28-Bsa4, N-terminal His6 tag removed by TEV, construct 26672 Da
Protocol: as §1

BSA = biological target: T4, BSA (Bos taurus, UniProt P02769); design: Intact protein LC/MS covalent labelling, fragments in pools of five, 200 uM each, 4 °C; details: 24 h, 4 °C, pool of five; 200 µM; covalent
T4 construct: gene ALB
Protocol: as §1

in vitro [2] = experiment: in vitro; design: species or system HB2, CCD841; details: human, hek293 cells
in vitro [3] = experiment: in vitro; design: species or system HB2, HEK293; details: human, ccd841 cells

T2 sequence (Q92831 whole entry, the tested form may be a part): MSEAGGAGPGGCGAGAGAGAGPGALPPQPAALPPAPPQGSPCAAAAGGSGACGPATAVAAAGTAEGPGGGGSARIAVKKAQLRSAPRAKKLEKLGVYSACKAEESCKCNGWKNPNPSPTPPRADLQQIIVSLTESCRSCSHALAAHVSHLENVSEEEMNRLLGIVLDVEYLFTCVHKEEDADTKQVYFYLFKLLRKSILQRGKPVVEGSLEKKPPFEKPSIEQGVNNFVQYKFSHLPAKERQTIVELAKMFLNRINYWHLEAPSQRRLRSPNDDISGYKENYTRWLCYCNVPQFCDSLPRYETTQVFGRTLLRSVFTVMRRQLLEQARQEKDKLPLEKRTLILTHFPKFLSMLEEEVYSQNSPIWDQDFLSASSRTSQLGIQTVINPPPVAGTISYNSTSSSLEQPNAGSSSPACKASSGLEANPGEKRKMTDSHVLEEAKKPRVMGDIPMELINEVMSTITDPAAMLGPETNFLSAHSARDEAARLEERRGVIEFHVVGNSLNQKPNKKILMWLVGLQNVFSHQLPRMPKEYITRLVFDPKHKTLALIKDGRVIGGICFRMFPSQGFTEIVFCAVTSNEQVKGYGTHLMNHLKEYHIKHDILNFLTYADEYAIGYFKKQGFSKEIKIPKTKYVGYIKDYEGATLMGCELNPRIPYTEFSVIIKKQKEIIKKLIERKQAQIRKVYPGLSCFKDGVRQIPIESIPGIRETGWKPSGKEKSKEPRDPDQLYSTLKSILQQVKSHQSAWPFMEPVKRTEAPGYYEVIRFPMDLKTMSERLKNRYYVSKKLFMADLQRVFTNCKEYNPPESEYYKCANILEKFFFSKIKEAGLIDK
T4 sequence (P02769 whole entry, the tested form may be a part): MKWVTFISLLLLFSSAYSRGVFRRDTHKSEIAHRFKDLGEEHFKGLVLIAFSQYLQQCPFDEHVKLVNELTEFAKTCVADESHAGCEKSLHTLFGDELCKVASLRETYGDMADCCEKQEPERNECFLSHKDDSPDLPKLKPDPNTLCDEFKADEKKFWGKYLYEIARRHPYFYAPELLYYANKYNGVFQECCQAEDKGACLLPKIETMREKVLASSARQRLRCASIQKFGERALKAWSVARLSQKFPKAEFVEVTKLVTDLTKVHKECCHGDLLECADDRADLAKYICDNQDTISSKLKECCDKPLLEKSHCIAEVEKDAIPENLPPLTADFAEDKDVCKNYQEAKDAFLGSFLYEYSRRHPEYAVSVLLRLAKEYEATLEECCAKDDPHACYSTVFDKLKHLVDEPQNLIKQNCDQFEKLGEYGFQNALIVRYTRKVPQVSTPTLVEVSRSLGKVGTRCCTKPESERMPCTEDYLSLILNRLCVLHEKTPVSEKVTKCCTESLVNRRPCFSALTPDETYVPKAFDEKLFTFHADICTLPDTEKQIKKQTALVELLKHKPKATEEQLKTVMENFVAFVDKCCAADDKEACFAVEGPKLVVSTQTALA
T3 sequence (P0C024 14-235): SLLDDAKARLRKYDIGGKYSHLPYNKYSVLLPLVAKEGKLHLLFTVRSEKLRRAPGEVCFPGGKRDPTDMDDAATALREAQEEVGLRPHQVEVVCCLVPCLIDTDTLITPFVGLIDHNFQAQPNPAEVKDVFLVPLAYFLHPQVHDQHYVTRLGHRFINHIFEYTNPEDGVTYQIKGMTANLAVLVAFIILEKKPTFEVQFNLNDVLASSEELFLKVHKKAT

Row | Compound | viability at 48 h, 10 µM (in vitro [1]) [%] | OTUB2 (OTUB2 (OTUB2A)) | PCAF (PCAF) | NUDT7 (NUDT7) | BSA (BSA) | viability at 48 h, 10 µM (in vitro [2]) [%] | viability at 48 h, 10 µM (in vitro [3]) [%]
1 | O=C(CCl)NCc1cccc(Cl)c1 [PCM-0102174] | 83.4 | 0.25 | 0 | 0 | 0 | 74.3 | 79.9
2 | Cc1cc(NC(=O)CCl)ccc1N1CCCC1 [PCM-0102175] | 10.2 | 0.39 | 0 | 0.13 | 0.15 | 2.9 | 45.1
3 | Cc1ccc(NC(=O)CCl)cc1S(N)(=O)=O [PCM-0102177] | 8.9 | 0.27 | 0 | 0.1 | 0 | 1.4 | 28.2
4 | CN(C(=O)CCl)C1CCS(=O)(=O)C1 (centres unmarked) [PCM-0102178] | 56.9 | 0 | 0 | 0 | 0 | 31.5 | 72.1
5 | CC(NC(=O)CCl)c1cccs1 (centres unmarked) [PCM-0102180] | 93.5 | 0.55 | 0 | 0.16 | 0.24 | 75.1 | 78.5
6 | O=C(CCl)Nc1cccc(-c2nnc3n2CCCCC3)c1 [PCM-0102181] | 51.2 | 0 | 0 | 0 | 0 | 39.2 | 73.2
7 | Cc1c(C#N)c(NC(=O)CCl)n(C2CCCC2)c1C [PCM-0102183] | 23.9 | 0 | 0 | 0.28 | 0 | 9.1 | 56.1
8 | Cc1cccc(N2CCN(C(=O)CCl)CC2)c1.Cl [PCM-0102185] | 13.1 | 0 | 0 | 0.05 | 0 | 35.9 | 65.7
9 | CCN(C(=O)CCl)c1nc2ccccc2s1 [PCM-0102186] | 69.7 | 0 | 0 | 0.33 | 0 | 69.9 | 16.1
10 | O=C(CCl)Nc1nnc(C2CC2)o1 [PCM-0102187] | 106 | 0 | 0 | 0 | 0 | 97.2 | 114
11 | O=C(CCl)N1CCCc2cc([N+](=O)[O-])ccc21 [PCM-0102188] | 19.6 | 0.12 | 0 | 0.09 | 0 | 46.6 | 32.3
12 | CC(NC(=O)CCl)c1cccc(Cl)c1 (centres unmarked) [PCM-0102190] | 69.6 | 0.37 | 0 | 0.42 | 0 | 49.3 | 73.2
13 | C=CC(=O)Nc1ccc(Br)cc1 [PCM-0102191] | 91.3 | 0 | 0 | 0.09 | 0 | 65.6 | 88.9
14 | O=C(CCl)NCc1ccc(F)cc1 [PCM-0102192] | 86.9 | 0.31 | 0 | 0 | 0 | 77.8 | 76.1
